Test results taken from US20260256873A1, “MODIFIED CAVEOLIN-1 PEPTIDE FORMULATIONS AND METHODS OF MANUFACTURING AND USE THEREOF” (LUNG THERAPEUTICS, INC., priority 2022, published 2026).
Several values for one entry are separate records, joined by “and”; a condition that tells them apart may be missing. Equal entries are not always repeated. Where two headings read alike, the source gives them in different places. Where a SMILES comes first, the peptide text is derived from it. [ ]: non-standard residue; d: D form.

Experiments:
[1] = APi2355 concentrations in various tissues at 42 days post treatment (LC/MS/MS); assay type: in vivo; settings: male, Sprague Dawley, rat, sc, 2 mg/kg, mean of 6 rats, single SC 2.0 mg/kg in SAIB formulation
Description: (§1) The plasma pharmacokinetics of the Cav-1 peptide (APi2355) SAIB formulation prepared according to Example 1 (5.66% w/w APi2355 75.47% w/w SAIB and 18.87% w/w NMP to provide 7% w/w APi2355 to 93% w/w SAIB) were assessed over 42 days after a single-dose subcutaneous administration to male Sprague Dawley rats. The rats (n=6) received one of three batches of the APi2355 SAIB formulations prepared according to Example 1 at a dose of 2.0 mg/kg of APi2355 in 0.033 mL/kg (concentration 60.0 mg/mL). Control group of rats (n=2) received an injection of vehicle formulation containing no APi2355.
(§2) Animals were assigned to groups by a stratified randomization scheme designed to achieve similar group mean body weights. The animals were acclimated to their designated housing for at least 5 days before the day dosing. All formulations were administered in a single dose by dorsal subcutaneous (SC) injection on day 0. Whole blood samples (40-50 μl) were collected from all animals in APi2355 treated group at pre-dose and 1 h, 2 h, 4 h, 8 h, 1 day, 2 days, 4 days, 7 days, 10 days, 14 days, 21 days, 29 days, and 35 days post-treatment. Whole blood samples (40-50 μl, by tail nick) were collected from all animals in control group at pre-dose and at 1 h and 1 day post-treatment. Blood was collected into K2EDTA tubes. Tubes were mixed gently after blood collection, chilled and centrifuged at 3000 rpm and 4° C., within 30 minutes upon collection. The resultant plasma was separated, transferred to uniquely labeled polypropylene tubes and frozen at −20° C. Plasma and tissue samples were analyzed for concentration of APi2355 using a qualified analytical procedure for LC/MS/MS.
(§3) Terminal whole blood samples (maximal volume by cardiac stick) and tissues were collected from all animals on day 42 post-treatment. Tissues included tissues from heart, liver, kidney, lung, and injection site skin patches. Additionally, lungs were processed for bronchial lavage samples. Tissue samples were analyzed for APi2355 by LC/MS/MS.

[2] = Plasma pharmacokinetics of the APi2355 SAIB formulation over 42 days after single-dose subcutaneous administration; assay type: in vivo, male Sprague Dawley rats; settings: for Tmax: sc
Description: as §1
as §2, with “Whole blood samples (40-50 μl) were collected from all animals in APi2355 treated group at pre-dose and 1 h, 2 h, 4 h, 8 h, 1 day, 2 days, 4 days, 7 days, 10 days, 14 days, 21 days, 29 days, and 35 days post-treatment.” left out
as §3

[3] = individual rats, single SC 2.0 mg/kg APi2355 in SAIB formulation, 2 mg/kg
[4] = rat plasma, single SC 2.0 mg/kg in SAIB formulation

Compound `CC(=O)N[C@H](C)C(=O)N[C@H](C)C(=O)N[C@@H](CCC(=O)O)C(=O)NCC(=O)N[C@@H](CCCCN)C(=O)N[C@@H](C)C(=O)N[C@@H](CO)C(=O)N[C@@H](Cc1ccccc1)C(=O)N[C@H](C(=O)N[C@H](C(=O)N[C@@H](Cc1ccccc1)C(=O)N[C@H](C(=O)N[C@H](C(=O)N[C@H](C(=O)N[C@@H](CCCCN)C(=O)NCC(=O)N[C@@H](CO)C(=O)N[C@H](C)C(=O)N[C@H](C)C(N)=O)[C@@H](C)O)C(C)C)[C@@H](C)O)[C@@H](C)O)[C@@H](C)O` [APi2355, Ac-aaEGKASFTTFTVTKGSaa-NH2] (Ac-[dA][dA]EGKASFTTFTVTKGS[dA][dA]-NH2) has a level at 1008 h ([1]; bronchoalveolar lavage fluid (BALF), read-out: Concentration in BALF (bronchoalveolar lavage fluid), Mean) of 0.99 ng/mL, a tissue level at time at 1008 h ([1]; heart, read-out: Concentration in Heart, Mean) of 12.1 ng/g and a tissue level at time at 1008 h ([1]; injection site skin, injection site skin, read-out: Concentration in Skin, Mean) of 4.95 ng/g. For the same compound, the tissue level at time at 1008 h ([1]; kidney, read-out: Concentration in Kidney, Mean) was 53.2 ng/g, the tissue level at time at 1008 h ([1]; liver, read-out: Concentration in Liver, Mean) was 1.23 ng/g and the tissue level at time at 1008 h ([1]; lung, read-out: Concentration in Lung, Mean) was 68 ng/g. For the same compound, the “AUC0-14, Mean” value ([2]; dose to day 14, rat plasma, single SC 2.0 mg/kg in SAIB formulation) was 126 ng·days/mL, the “AUC0-22, Mean” value ([2]; dose to day 22, rat plasma, single SC 2.0 mg/kg in SAIB formulation) was 146 ng·days/mL and the “AUCinf, Mean” value ([2]; extrapolated to infinity (AUClast + Clast/λz), rat plasma, single SC 2.0 mg/kg in SAIB formulation) was 183 ng·days/mL. It also gave a CL/F ([2]; in vivo, apparent plasma clearance, rat, single SC 2.0 mg/kg in SAIB formulation) of 6.94 mL/min/kg, a Vd/F ([2]; in vivo, apparent volume of distribution, terminal phase, rat, single SC 2.0 mg/kg in SAIB formulation, read-out: Vz/F, Mean) of 133 L/kg and an AUC(0-t) ([2]; in vivo, log/linear trapezoidal method, rat plasma, single SC 2.0 mg/kg in SAIB formulation, read-out: AUClast, Mean (converted)) of 3940 ng·h/mL. For the same compound, the Cmax ([2]; in vivo, rat plasma, single SC 2.0 mg/kg APi2355 in SAIB formulation) was 477 ng/mL, the half-life ([2]; in vivo, rat plasma, single SC 2.0 mg/kg in SAIB formulation, read-out: Half-life (terminal), Mean (converted)) was 222 h and the MRT last ([2]; in vivo, rat plasma, single SC 2.0 mg/kg in SAIB formulation, read-out: MRTlast, Mean (converted)) was 188 h. The “APi2355 plasma concentration 1 hr post-treatment” value [2, 3] was 202.00 ng/mL and 232.90 ng/mL and 109.02 ng/mL and 101.53 ng/mL and 84.70 ng/mL and 557.93 ng/mL, the “APi2355 plasma concentration 2 hr post-treatment” value [2, 3] was 884.98 ng/mL and 111.43 ng/mL and 37.62 ng/mL and 317.55 ng/mL and 539.82 ng/mL and 497.89 ng/mL and the “APi2355 plasma concentration 4 hr post-treatment” value [2, 3] was 26.95 ng/mL and 102.25 ng/mL and 328.27 ng/mL and 164.91 ng/mL and 97.42 ng/mL and 52.01 ng/mL. The “APi2355 plasma concentration 8 hr post-treatment” value [2, 3] was 23.90 ng/mL and 54.20 ng/mL and 80.69 ng/mL and 75.60 ng/mL and 47.06 ng/mL and 39.24 ng/mL, the “APi2355 plasma concentration 1 day post-treatment” value [2, 3] was 10.32 ng/mL and 11.86 ng/mL and 20.55 ng/mL and 12.72 ng/mL and 19.85 ng/mL and 25.11 ng/mL and the “APi2355 plasma concentration 2 day post-treatment” value [2, 3] was 6.13 ng/mL and 3.87 ng/mL and 2.54 ng/mL and 8.72 ng/mL and 14.40 ng/mL and 6.90 ng/mL. For the same compound, the “APi2355 plasma concentration 4 day post-treatment” value [2, 3] was 4.65 ng/mL and 3.40 ng/mL and 1.29 ng/mL and 2.17 ng/mL and 1.84 ng/mL and 1.41 ng/mL, the “APi2355 plasma concentration 7 day post-treatment” value [2, 3] was 15.91 ng/mL and 5.07 ng/mL and 2.40 ng/mL and 2.14 ng/mL and 5.18 ng/mL and 1.44 ng/mL and the “APi2355 plasma concentration 10 day post-treatment” value [2, 3] was 2.09 ng/mL and 2.04 ng/mL and 10.43 ng/mL and 5.54 ng/mL and 2.38 ng/mL and 1.58 ng/mL. For the same compound, the “APi2355 plasma concentration 14 day post-treatment” value [2, 3] was 1.66 ng/mL and 1.24 ng/mL and 7.00 ng/mL and 1.83 ng/mL and 1.64 ng/mL and 3.04 ng/mL, the “APi2355 plasma concentration 22 day post-treatment” value [2, 3] was 1.68 ng/mL and 1.87 ng/mL and 2.49 ng/mL and 5.68 ng/mL and 1.98 ng/mL and 1.93 ng/mL and the “APi2355 plasma concentration 29 day post-treatment” value [2, 3] was 0.98 ng/mL and 0.50 ng/mL and 0.85 ng/mL and 0.65 ng/mL and 0.58 ng/mL and 0.16 ng/mL. For the same compound, the “APi2355 plasma concentration 35 day post-treatment” value [2, 3] was 0.81 ng/mL and 1.13 ng/mL and 0.78 ng/mL and 0.10 ng/mL and 0.72 ng/mL and 4.20 ng/mL, the “APi2355 plasma concentration 42 day post-treatment” value [2, 3] was 0.88 ng/mL and 0.29 ng/mL and 0.15 ng/mL and 0.00 ng/mL (2×) and 0.04 ng/mL and the “Clast, Mean” value ([2]; last measurable concentration, rat plasma, single SC 2.0 mg/kg in SAIB formulation) was 0.942 ng/mL. It also gave a level at 1 h ([2]; male, Sprague Dawley, rat, plasma, mean of 6 rats, single SC 2.0 mg/kg APi2355 in SAIB formulation, read-out: APi2355 plasma concentration 1 hr post-treatment, Mean) of 215 ng/mL, a level at 2 h ([2]; male, Sprague Dawley, rat, plasma, mean of 6 rats, single SC 2.0 mg/kg APi2355 in SAIB formulation, read-out: APi2355 plasma concentration 2 hr post-treatment, Mean) of 398 ng/mL and a level at 4 h ([2]; male, Sprague Dawley, rat, plasma, mean of 6 rats, single SC 2.0 mg/kg APi2355 in SAIB formulation, read-out: APi2355 plasma concentration 4 hr post-treatment, Mean) of 129 ng/mL. For the same compound, the level at 8 h ([2]; male, Sprague Dawley, rat, plasma, mean of 6 rats, single SC 2.0 mg/kg APi2355 in SAIB formulation, read-out: APi2355 plasma concentration 8 hr post-treatment, Mean) was 53.5 ng/mL, the level at 24 h ([2]; male, Sprague Dawley, rat, plasma, mean of 6 rats, single SC 2.0 mg/kg APi2355 in SAIB formulation, read-out: APi2355 plasma concentration 1 day post-treatment, Mean) was 16.7 ng/mL and the level at 48 h ([2]; male, Sprague Dawley, rat, plasma, mean of 6 rats, single SC 2.0 mg/kg APi2355 in SAIB formulation, read-out: APi2355 plasma concentration 2 day post-treatment, Mean) was 7.09 ng/mL. For the same compound, the level at 96 h ([2]; male, Sprague Dawley, rat, plasma, mean of 6 rats, single SC 2.0 mg/kg APi2355 in SAIB formulation, read-out: APi2355 plasma concentration 4 day post-treatment, Mean) was 2.46 ng/mL, the level at 168 h ([2]; male, Sprague Dawley, rat, plasma, mean of 6 rats, single SC 2.0 mg/kg APi2355 in SAIB formulation, read-out: APi2355 plasma concentration 7 day post-treatment, Mean) was 5.36 ng/mL and the level at 240 h ([2]; male, Sprague Dawley, rat, plasma, mean of 6 rats, single SC 2.0 mg/kg APi2355 in SAIB formulation, read-out: APi2355 plasma concentration 10 day post-treatment, Mean) was 4.01 ng/mL. For the same compound, the level at 336 h ([2]; male, Sprague Dawley, rat, plasma, mean of 6 rats, single SC 2.0 mg/kg APi2355 in SAIB formulation, read-out: APi2355 plasma concentration 14 day post-treatment, Mean) was 2.73 ng/mL, the level at 528 h ([2]; male, Sprague Dawley, rat, plasma, mean of 6 rats, single SC 2.0 mg/kg APi2355 in SAIB formulation, read-out: APi2355 plasma concentration 22 day post-treatment, Mean) was 2.61 ng/mL and the level at 696 h ([2]; male, Sprague Dawley, rat, plasma, mean of 6 rats, single SC 2.0 mg/kg APi2355 in SAIB formulation, read-out: APi2355 plasma concentration 29 day post-treatment, Mean) was 0.62 ng/mL. The level at 840 h ([2]; male, Sprague Dawley, rat, plasma, mean of 6 rats, single SC 2.0 mg/kg APi2355 in SAIB formulation, read-out: APi2355 plasma concentration 35 day post-treatment, Mean) was 1.29 ng/mL, the level at 1008 h ([2]; male, Sprague Dawley, rat, plasma, mean of 6 rats, single SC 2.0 mg/kg APi2355 in SAIB formulation, read-out: APi2355 plasma concentration 42 day post-treatment, Mean) was 0.23 ng/mL and the “APi2355 detectable in the plasma following administration” value ([2]; number of rats, single SC 2.0 mg/kg in SAIB formulation) was 4 out of 6. The “% AUC Extrap, Mean” value [2, 4] was 9.00%, the “extrapolated AUC of AUCinf” value [2, 4] was less than 20% and the “fraction of the total exposure of APi2355 occurring in the first 3 weeks after SC administration” value [2, 4] was “Approximately ⅔”. The Tmax ([2]; rat, in vivo, 2 mg/kg, rat plasma, single SC 2.0 mg/kg APi2355 in SAIB formulation, read-out: Tmax, Mean (converted)) was 1.99 h, the Tmax ([2]; rat, in vivo, 2 mg/kg, rat plasma, single SC 2.0 mg/kg APi2355 in SAIB formulation, read-out: Tmax, median (converted)) was 1.99 h and the “Tlast, Mean” value ([2]; time of last quantifiable concentration, rat plasma, single SC 2.0 mg/kg in SAIB formulation) was 39.7 days.
